We go through 27 compounds from patent US4705799A, “Aminomethyl oxooxazolidinyl benzenes useful as antibacterial agents” (E. I. Du Pont de Nemours and Company, priority 1985, dated 1987).

SMILES strings stand for the structures. ≈ marks a conversion by molar mass, not a printed value.

Test [1] relates to Staphylococcus epidermidis. The experiment in a line: In vitro broth dilution minimal inhibitory concentration (standard microdilution method). The format is cell-based. As to conditions: Mueller-Hinton broth, 24-hour; for MIC: 24 h, read-out: Microdilution Broth MIC. A general note: Broth dilution looks for growth in wells or tubes with falling amounts of substance.
Test [2] concerns Staphylococcus aureus. The test is described as follows: In vivo efficacy of orally administered compounds in mouse intraperitoneal infections. Particulars: mouse i.p. Staphylococcus aureus infection, oral, dosed at infection and 4 h post-infection, 7 days; for ED50: Staphylococcus aureus, po, 168 h, read-out: ED50 (50 percent effective dose). Here is the method: (§1) Determinations of in vivo efficacy are performed by inoculating mice intraperitoneally with cultures of the infecting organism diluted to produce 90-100% mortality in control animals within twenty-four hours. The diluents used were trypticase soy broth for E. coli and 5% aqueous hog gastric mucin for Staphylococcus aureus infections. The compounds are dissolved or suspended in 0.25% aqueous Methocel® (Methocel®: Hydroxypropyl Methylcellulose E15 Premium, Dow Chemical Company) for oral administration or sterile distilled water containing 5% dimethylsulfoxide (Fisher Scientific Company, Fairlawn, N.J.) for subcutaneous administration. The mice are dosed at the time of infection and again at four hours post-infection. Mortality is recorded daily until test termination seven days post infection and the 50 percent effective dose, ED50, is calculated by the Reed-Muench method (Reed, L. G. and Muench, H., "A simple method of estimating fifty percent end points," American Journal of Hygiene, 27, 493-497 (1938).

The subject of test [3] is Escherichia coli. The description is as above. As to conditions: mouse i.p. Escherichia coli infection, oral, dosed at infection and 4 h post-infection, 7 days; for ED50: 168 h, read-out: ED50 (50 percent effective dose). Here is the method: as §1
Test [4] has as its system Escherichia coli. The test is described as follows: In vitro broth dilution minimal inhibitory concentration (standard microdilution method). In kind it is cell-based. Particulars: Escherichia coli, Mueller-Hinton broth, 24-hour; for MIC: read-out: Microdilution Broth MIC.
Test [5] deals with Staphylococcus aureus. The test is described as follows: In vivo efficacy of compounds administered subcutaneously in mouse intraperitoneal infections. As to conditions: sc, 168 h; mouse i.p. Staphylococcus aureus infection; subcutaneous; dosed at infection and 4 h post-infection; 7 days; read-out: ED50 (50 percent effective dose). Here is the method:
as §1

By MIC is commonly meant the lowest concentration found to suppress growth. What is called ED50 is the midpoint of the dose-response relation. With `CS(=O)(=O)c1ccc(N2CC(CN=[N+]=[N-])OC2=O)cc1` (single isomer, unassigned) [Example 2, (l)-5-Azidomethyl-3-[4-(methylsulfonyl)phenyl]-2-oxazolidinone], the values for the MIC (in test [1]; in the test with Escherichia coli [4]) were 6.3 µg/mL (≈ 21.3 µM) and over 100 µg/mL, respectively. Besides, the results for the ED50 in the test with Staphylococcus aureus [2] and in the test with Escherichia coli [3] were 7.3 mg/kg and 52.6 mg/kg, respectively.
For the compound `[N-]=[N+]=NCC1CN(c2ccc(S(N)(=O)=O)cc2)C(=O)O1` (single isomer, unassigned) [Example 3, (l)-4-[5-(Azidomethyl)-2-oxooxazolidin-3-yl]benzenesulfonamide], the figures for the MIC (in test [1]; with Escherichia coli [4]) were 25 µg/mL (≈ 84.1 µM) and over 100 µg/mL, respectively. Further, the ED50 in the test on Staphylococcus aureus [2] was 29.3 mg/kg; with Escherichia coli [3], over 120 mg/kg.
With `CS(=O)(=O)c1ccc(N2CC(CN)OC2=O)cc1` (single isomer, unassigned) [Example 11, (l)-5-Aminomethyl-3-[4-(methylsulfonyl)phenyl]-2-oxazolidinone], the MIC (in test [1]; in the test with Escherichia coli [4]) was over 100 µg/mL each time. Besides, the ED50 with Staphylococcus aureus [2] was 29.9 mg/kg; in the test with Escherichia coli [3] it was 47.4 mg/kg; with Staphylococcus aureus [5] it was 16.4 mg/kg.
For the compound `CS(=O)(=O)c1ccc(N2CC(CNC=O)OC2=O)cc1` (single isomer, unassigned) [Example 21, (l)-N-[3-[4-(Methylsulfonyl)phenyl]-2-oxooxazolidin-5-ylmethyl]formamide], the MIC was 6.3 µg/mL (≈ 21.1 µM) in test [1] and 100 µg/mL (≈ 335 µM) with Escherichia coli [4]. For the same compound, the values for the ED50 with Staphylococcus aureus [2] and in the test on Escherichia coli [3] were 7.3 mg/kg and 30.3 mg/kg, respectively.
The matching figures for `CC(=O)NCC1CN(c2ccc(S(C)(=O)=O)cc2)C(=O)O1` (single isomer, unassigned) [Example 23, (l)-N-[3-[4-(Methylsulfonyl)phenyl]-2-oxooxazolidin-5-ylmethyl]acetamide]: 3.2 µg/mL (≈ 10.2 µM), 25 µg/mL (≈ 80 µM), 3.3 mg/kg and 14 mg/kg.
`CSc1ccc(N2CC(CNC(C)=O)OC2=O)cc1` (single isomer, unassigned) [Example 31, (l)-N-[3-[4-(methylthio)phenyl]-2-oxooxazolidin-5-ylmethyl]acetamide]: the results for the MIC (in test [1]; in the test on Escherichia coli [4]) were 3.9 µg/mL (≈ 13.9 µM) and over 200 µg/mL, respectively. Besides, the ED50 is 3.5 mg/kg in the test with Staphylococcus aureus [2], 19.6 mg/kg in the test with Escherichia coli [3] and under 4.4 mg/kg with Staphylococcus aureus [5].
Take `COC(=O)NCC1CN(c2ccc(SC)cc2)C(=O)O1` (single isomer, unassigned) [Example 32, (l)-N-[3-[4-(methylthio)phenyl]-2-oxooxazolidin-5-ylmethyl]carbamic acid, methyl ester]: the MIC is 12.5 µg/mL (≈ 42.2 µM) in test [1] and over 200 µg/mL in the test with Escherichia coli [4]. Also, the figures for the ED50 with Staphylococcus aureus [2], with Escherichia coli [3] and in the test with Staphylococcus aureus [5] were 3.5 mg/kg, 70.9 mg/kg and under 4.4 mg/kg, respectively.
As for `CC(=O)NCC1CN(c2ccc(C(C)C)cc2)C(=O)O1` (single isomer, unassigned) [Example 51, (l)-N-[3-(4-isopropylphenyl)-2-oxooxazolidin-5-ylmethyl]acetamide], the MIC in test [1] was 3.1 µg/mL (≈ 11.2 µM); in the test on Escherichia coli [4], over 200 µg/mL. Further, the results for the ED50 in the test on Staphylococcus aureus [2] and with Escherichia coli [3] were 6.4 mg/kg and 62.9 mg/kg, respectively.
The matching figures for `COC(=O)NCC1CN(c2ccc([S+](C)[O-])cc2)C(=O)O1` (single isomer, unassigned) [Example 121, (l)-N-[3-[4-(Methylsulfinyl)phenyl]-2-oxooxazolidin-5-ylmethyl]carbamic acid, methyl ester]: 18.8 µg/mL (≈ 60.2 µM), over 200 µg/mL, 2.5 mg/kg and 55.9 mg/kg.
In the case of `CC(=O)NCC1CN(c2ccccc2[N+](=O)[O-])C(=O)O1` (single isomer, unassigned) [Example 148, (l)-N-[3-(2-Nitrophenyl)-2-oxooxazolidin-5-ylmethyl]acetamide], the values for the MIC (in test [1]; in the test on Escherichia coli [4]) were 200 µg/mL (≈ 716 µM) and over 200 µg/mL, respectively. The ED50 in the test with Staphylococcus aureus [2] was 21 mg/kg; in the test with Escherichia coli [3], over 120 mg/kg; in the test with Staphylococcus aureus [5], 21.5 mg/kg.
The matching figures for `CC(=O)NCC1CN(c2ccc(N)cc2)C(=O)O1` (single isomer, unassigned) [Example 149, (l)-N-[3-(4-Aminophenyl)-2-oxooxazolidin-5-ylmethyl]acetamide]: 100 µg/mL (≈ 401 µM), over 200 µg/mL, 20.2 mg/kg, over 120 mg/kg and 10.3 mg/kg.
The corresponding values for `CC(=O)NCC1CN(c2ccc(SC(C)=O)cc2)C(=O)O1` (single isomer, unassigned) [Example 152, (l)-N-[3-[4-(Acetylthio)phenyl]-2-oxooxazolidin-5-ylmethyl]acetamide] are over 200 µg/mL, over 200 µg/mL, 4.4 mg/kg, 24.8 mg/kg and under 2.5 mg/kg.
In the case of `COC(=O)NCC1CN(c2ccc(SC(C)=O)cc2)C(=O)O1` (single isomer, unassigned) [Example 155], the MIC (in test [1]; in the test with Escherichia coli [4]) was over 200 µg/mL each time. Moreover, the ED50 with Staphylococcus aureus [2] was 3 mg/kg; in the test on Escherichia coli [3], 82.2 mg/kg; in the test on Staphylococcus aureus [5], under 4.4 mg/kg.
Consider `COC(=O)NCC1CN(c2ccc(S)cc2)C(=O)O1` (single isomer, unassigned) [Example 156, (l)-[3-(4-Mercaptophenyl)-2-oxooxazolidin-5-ylmethyl]carbamic acid, methyl ester], for which the MIC (in test [1]; in the test with Escherichia coli [4]) was over 200 µg/mL each time. Besides, the ED50 is 4.5 mg/kg with Staphylococcus aureus [2], over 120 mg/kg in the test on Escherichia coli [3] and under 4.4 mg/kg in the test with Staphylococcus aureus [5].
Regarding `CCC(=O)NCC1CN(c2ccc(S(C)(=O)=O)cc2)C(=O)O1` (centres unmarked) [Example 27], the minimum inhibitory concentration (MIC) in test [1] came to 6.3 µg/mL (≈ 19.3 µM); in the test on Escherichia coli [4], 50 µg/mL (≈ 153 µM). Further, the figures for the ED50 with Staphylococcus aureus [2] and in the test on Escherichia coli [3] were 8 mg/kg and 37 mg/kg, respectively.
In the case of `CCOC(=O)NCC1CN(c2ccc(SC)cc2)C(=O)O1` (centres unmarked) [Example 33], the MIC is 50 µg/mL (≈ 161 µM) in test [1] and over 200 µg/mL in the test with Escherichia coli [4]. Moreover, the ED50 in the test on Staphylococcus aureus [2] is 12.2 mg/kg; in the test with Escherichia coli [3] it was over 120 mg/kg; in the test on Staphylococcus aureus [5], 8.6 mg/kg.
The corresponding values for `CC(=O)NCC1CN(c2ccc(C(F)(F)F)cc2)C(=O)O1` (centres unmarked) [Example 41] are 12.5 µg/mL (≈ 41.4 µM), over 200 µg/mL, 5.3 mg/kg, over 120 mg/kg and 6.1 mg/kg.
As to `COC(=O)NCC1CN(c2ccc(C(C)C)cc2)C(=O)O1` (centres unmarked) [Example 52], the results for the “Microdilution Broth MIC” value (in test [1]; in the test on Escherichia coli [4]) were 6.3 µg/mL and over 200.0 µg/mL, respectively. The results for the “ED50 (50 percent effective dose)” value in the test with Staphylococcus aureus [2] (10080 min) and in the test on Escherichia coli [3] were 4.9 mg/kg and over 120.0 mg/kg, respectively.
For the compound `CC(=O)NCC1CN(c2ccc(C#N)cc2)C(=O)O1` (centres unmarked) [Example 59], the MIC in test [1] is 100 µg/mL (≈ 386 µM); in the test with Escherichia coli [4], over 200 µg/mL. In addition, the ED50 with Staphylococcus aureus [2] was 4.3 mg/kg; with Escherichia coli [3] it was 88 mg/kg.
The matching figures for `CC(=O)NCC1CN(c2ccc3c(c2)OCO3)C(=O)O1` (centres unmarked) [Example 62]: 50 µg/mL (≈ 180 µM), over 200 µg/mL, 19.1 mg/kg and over 120 mg/kg.
The matching figures for `C=CC(=O)NCC1CN(c2ccc(S(C)(=O)=O)cc2)C(=O)O1` (centres unmarked) [Example 69]: 9.4 µg/mL (≈ 29 µM), 150 µg/mL (≈ 462 µM), 11.9 mg/kg and 65.7 mg/kg.
For `COC(=O)NCC1CN(c2ccc(Cl)cc2)C(=O)O1` (centres unmarked) [Example 84], the MIC (in test [1]; in the test with Escherichia coli [4]) was over 128 µg/mL in each case. In addition, the ED50 was 79.2 mg/kg with Staphylococcus aureus [2], over 120 mg/kg in the test with Escherichia coli [3] and 80.5 mg/kg in the test on Staphylococcus aureus [5].
`CSc1ccc(N2CC(CNC=O)OC2=O)cc1` (centres unmarked) [Example 89]: the MIC in test [1] was 25 µg/mL (≈ 93.9 µM); in the test with Escherichia coli [4], over 200 µg/mL. The values for the ED50 in the test with Staphylococcus aureus [2] and in the test on Escherichia coli [3] were 11 mg/kg and over 138 mg/kg, respectively.
The matching figures for `C[S+]([O-])c1ccc(N2CC(CNC=O)OC2=O)cc1` (centres unmarked) [Example 90]: 25 µg/mL (≈ 88.6 µM), over 200 µg/mL, 11.3 mg/kg and 98.4 mg/kg.
The corresponding values for `C=CC(=O)NCC1CN(c2ccc(C(C)=O)cc2)C(=O)O1` (centres unmarked) [Example 96] are 12.5 µg/mL (≈ 43.4 µM), over 50 µg/mL, 7.9 mg/kg and 83.2 mg/kg.
In the case of `CC(=O)NC[C@H]1CN(c2ccc([S@@+](C)[O-])cc2)C(=O)O1` [Example 180], the MIC came out at 4 µg/mL (≈ 13.5 µM) in test [1] and 128 µg/mL (≈ 432 µM) with Escherichia coli [4]. The ED50 in the test on Staphylococcus aureus [2] came out at 2.5 mg/kg; in the test on Staphylococcus aureus [5] it was 0.8 mg/kg.
The matching figures for `CC(=O)NC[C@H]1CN(c2ccc([S@+](C)[O-])cc2)C(=O)O1` [Example 181, (S,S)-N-[3-[4-(Methylsulfinyl)phenyl]-2-oxo-5-oxazolidinylmethyl]acetamide]: 16 µg/mL (≈ 54 µM), over 128 µg/mL, 2.8 mg/kg and 1 mg/kg.
